PubChem BioAssay AID1259321 (Sanford-Burnham Center for Chemical Genomics, 2017)
Calls of active or inactive are those of the source.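 The calls were made as follows: active = half-maximal concentration for changing protein binding to DNA, from the fitted dose curve, below 10 micromolar; inactive = the rest.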

molecular target: Nuclear receptor subfamily 1 group D member 1 (Homo sapiens) (UniProt P20393); assay: modulators of Rev-erb alpha DNA binding, dose response, biochemical, FITC-DNA, fluorescence polarization (AID 1259321)
Sequence (P20393 whole entry, looked up): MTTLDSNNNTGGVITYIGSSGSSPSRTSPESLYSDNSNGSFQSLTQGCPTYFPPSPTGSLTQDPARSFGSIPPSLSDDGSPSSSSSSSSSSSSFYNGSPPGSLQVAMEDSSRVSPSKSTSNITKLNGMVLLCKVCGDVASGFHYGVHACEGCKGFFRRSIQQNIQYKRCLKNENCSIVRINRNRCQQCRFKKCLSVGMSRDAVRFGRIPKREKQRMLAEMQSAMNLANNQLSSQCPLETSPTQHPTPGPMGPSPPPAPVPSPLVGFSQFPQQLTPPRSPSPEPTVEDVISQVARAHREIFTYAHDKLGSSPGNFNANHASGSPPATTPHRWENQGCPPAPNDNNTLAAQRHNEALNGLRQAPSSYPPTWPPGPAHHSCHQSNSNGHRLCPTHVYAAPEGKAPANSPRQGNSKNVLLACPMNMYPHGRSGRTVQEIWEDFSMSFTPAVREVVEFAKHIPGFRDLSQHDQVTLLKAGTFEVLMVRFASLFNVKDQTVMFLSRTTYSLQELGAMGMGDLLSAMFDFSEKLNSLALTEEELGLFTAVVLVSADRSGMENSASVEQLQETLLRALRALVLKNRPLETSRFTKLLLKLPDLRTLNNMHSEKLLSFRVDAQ

SMILES	IC50
CCCC(Oc1ccc(Br)cc1)c1nc2c3cc(OC)c(OC)cc3nc(=S)n2[nH]1 (stereo not drawn)	> 40 µM (inactive)
CCN1/C(=C/c2ccc3cc(C)ccc3[n+]2CC)Sc2cc(C)ccc21	> 40 µM (inactive)
N#Cc1c(N)nc(Sc2ccc(Cl)cc2)c(C#N)c1-c1ccccc1Cl	6.32 µM
N#Cc1cc(C#N)c(N2CCN(c3cccc(Cl)n3)CC2)nc1N	5.79 µM
CCn1cc(/C=C/c2cc[n+](C)cc2)c2ccccc21	3.25 µM
CCN1C(=O)CSC1=NC12CC3CC(CC(C3)C1)C2	> 40 µM (inactive)
O=C1/C(=C\c2cc(Cl)c(O)c(Cl)c2)SC(=S)N1Cc1ccccc1	> 40 µM (inactive)
Cc1[nH]nc2nc(SCC(=O)NC3CCCCC3)n(-c3ccc(Br)cc3)c(=N)c12	5.74 µM
CC(=O)Nc1ccc(Nc2c3c4c(cccc4n(C)c2=O)C(=O)c2ccccc2-3)cc1	5.25 µM
O=c1oc2ccccc2c(NC(c2ccccc2)c2ccccc2)c1[N+](=O)[O-]	> 40 µM (inactive)
O=C1c2cccc3c(N4CCCCC4)ccc(c23)C(=O)N1CCO	inactive
O=S(=O)(N1CCCCC1)N1CCN(CC(O)COc2ccc3cc(Br)ccc3c2)CC1 (stereo not drawn)	> 40 µM (inactive)
CC1(C)Cc2c(c(N3CCOCC3)nc3sc4c(NN)ncnc4c23)CS1	> 40 µM (inactive)
COc1ccc(Cn2ccc3ccc(-c4ccc5ccn(C(=O)c6ccccc6OC)c5c4)cc32)cc1	> 40 µM (inactive)
CCc1nc(SCC(=O)NCCc2ccccc2)c2oc3ccccc3c2n1	1.57 µM
Cc1nc(SCc2nc3c(F)cccc3[nH]2)c2oc3ccccc3c2n1	> 40 µM (inactive)
O=C(NCc1ccc2c(c1)OCO2)C1CCC(CNS(=O)(=O)c2cccc3nsnc23)CC1 (stereo not drawn)	> 40 µM (inactive)
Cc1ccc(C(=O)CSc2nc3ccccc3c(=O)n2-c2ccccc2)s1	7.75 µM

SMILES	IC50
CCCN=C(C)c1c(-c2ccccc2)[nH]n(-c2nc3ccccc3s2)c1=O	0.917 µM
Cc1cc(C)cc(OCc2nc3ncc(Br)cc3[nH]2)c1	2.43 µM
O=c1ccc2c(-c3ccccc3)c3ccc(O)cc3oc-2c1	inactive
O=C(Nc1ccc(O)c(-c2nc3ccccc3s2)c1)C1=COCCO1	inactive
COc1ccccc1CC1(C)C(=O)Nc2ccc(OC(F)(F)F)cc21 (stereo not drawn)	> 40 µM (inactive)
CCN1/C(=C/c2ccc3cc(C)cc(C)c3[n+]2CC)Sc2cc(C)ccc21	> 40 µM (inactive)
CCCCN1C(=O)/C(=C/C=C2\SCCN2C)SC1=S	3.18 µM
NS(=O)(=O)c1ccc(CCNc2nc3c(-c4cccc(F)c4)nnn3c3ccccc23)cc1	> 40 µM (inactive)
Cc1ccc(-n2nc3c(N4CCC(C(=O)NCCc5cccs5)CC4)nnc(C)c3c2C)cc1	6.89 µM
COc1ccc(-n2nc3c(N4CCC(C(=O)NCc5ccccc5)CC4)nnc(C)c3c2C)cc1	> 40 µM (inactive)
N#Cc1c(-c2cccs2)cc(C2CC2)nc1SCC(N)=O	1.35 µM
O=C(Cn1cc(C(F)(F)F)cc(Cl)c1=O)NCc1ccc(Cl)cc1Cl	inactive
O=[N+]([O-])c1ccc(N(c2ccccc2)c2ccccc2)cc1	4.62 µM
Cc1ccc(Oc2nccc(-c3ccc(Cl)cc3)n2)cc1	7.31 µM
O=C(CCCn1c(=S)[nH]c2cc3c(cc2c1=O)OCO3)NCc1cccc(Cl)c1	> 40 µM (inactive)
O=C1c2cccc3c(O)ccc(c23)C(=O)N1Cc1ccccc1	inactive
CC1CCN(Cc2cc(=O)oc3ccc(C(C)C)cc23)CC1	9.88 µM
O=C(CCn1c(SCC(=O)c2ccccc2)nc2ccccc2c1=O)NCc1ccc(F)cc1	> 40 µM (inactive)

More lines, now with the values ahead:

IC50	SMILES
8.54 µM	CCOC(=O)c1sc(NC(=S)NC(=O)c2cccc(OC)c2)nc1C
5.91 µM	CCN(CC)C(=O)CSc1nc(C)cc(-c2cccs2)c1C#N
4.87 µM	COCCn1c(=NC(=O)c2ccco2)sc2cc(C(=O)OC)ccc21
inactive	CCOC(=O)c1c(NC(=O)CSc2nc3ccccc3s2)sc(C(C)=O)c1C
1.67 µM	COc1ccc(NC(=O)c2ccc(C(=O)c3cc(OC)ccc3OC)cc2)cc1
9.79 µM	Cc1cccc2cc(C#N)c(SCC(=O)NCc3cccs3)nc12
7.9 µM	COc1ccc(-c2nn(C)c(=O)c3ccccc23)cc1NC(=O)COc1ccccc1
0.38 µM	COc1ccccc1NC(=O)c1sc2ncn(Cc3cccc(C)c3)c(=O)c2c1C
0.599 µM	Cc1ccc(C(=O)Nc2nc3ccccc3c(=O)s2)cc1
> 40 µM (inactive)	COCCn1c(=NC(=O)CCS(=O)(=O)c2ccccc2)sc2cc(C(=O)OC)ccc21
3.33 µM	CC(=O)NC(=S)Nc1ccc2oc(-c3cc(F)c(F)cc3Cl)nc2c1
2.38 µM	COc1ccccc1NC(=O)c1sc2ncn(Cc3cccc4ccccc34)c(=O)c2c1C
4.24 µM	Cc1onc(-c2ccccc2)c1C(=O)Nc1nc(-c2cc(F)ccc2F)cs1
inactive	COc1ccc(-c2oc3ccccc3c(=O)c2OC(=O)c2ccc(C)cc2)cc1
1.16 µM	CCOC(=O)COc1c(Cl)cc(C2NC(=S)NC(c3ccccc3)=C2C(C)=O)cc1OCC (stereo not drawn)
2.58 µM	O=C(COC(=O)c1cc(Br)ccc1O)Nc1cccnc1Cl
1.57 µM	O=C(Nc1nc(=O)c2ccccc2s1)c1ccc(F)cc1
